How the values were obtained:
[1] = biological target: T1, 2-C-methyl-D-erythritol 4-phosphate cytidylyltransferase, chloroplastic (Arabidopsis thaliana, UniProt P69834); test: Inhibition of Arabidopsis thaliana IspD
T1 sequence (P69834 whole entry): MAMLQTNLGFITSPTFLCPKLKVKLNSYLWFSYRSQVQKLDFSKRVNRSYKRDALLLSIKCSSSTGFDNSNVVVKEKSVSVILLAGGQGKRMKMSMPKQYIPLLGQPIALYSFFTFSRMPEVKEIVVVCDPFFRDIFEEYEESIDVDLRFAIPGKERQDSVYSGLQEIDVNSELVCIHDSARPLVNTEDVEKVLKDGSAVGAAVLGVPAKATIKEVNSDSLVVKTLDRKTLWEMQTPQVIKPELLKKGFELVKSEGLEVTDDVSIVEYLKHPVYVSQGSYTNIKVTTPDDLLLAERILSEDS

[2] = Inhibition of Aquifex aeolicus IspH expressed in Escherichia coli BL21(DE3)
[3] = biological target: 2-C-methyl-D-erythritol 2,4-cyclodiphosphate synthase (Mycobacterium tuberculosis (strain ATCC 25618 / H37Rv), UniProt P9WKG5); test: Inhibition of Mycobacterium tuberculosis H37Rv IspF expressed in Escherichia coli XL1-Blue measured for 30 mins by photometric plate reader analysis
[4] = Inhibition of recombinant Plasmodium falciparum IspF measured for 30 mins by photometric plate reader analysis
[5] = Inhibition of Aquifex aeolicus IspH expressed in Escherichia coli BL21(DE3) using HMBPP as substrate preincubated for 10 mins followed by substrate addition
[6] = Inhibition of Escherichia coli IspE by CDP-ME-coupled photometric analysis
[7] = Inhibition of Chlamydomonas DXS
[8] = Inhibition of recombinant Pseudomonas aeruginosa DXS expressed in Escherichia coli by spectrophotometric analysis
[9] = Inhibition of Escherichia coli DXS
[10] = Inhibition of Escherichia coli IspF
[11] = Inhibition of Escherichia coli IspC
[12] = Inhibition of Escherichia coli IspF by fluorescence titration assay
[13] = Inhibition of IspD (unknown origin)
[14] = Competitive inhibition of Escherichia coli IspG expressed in Escherichia coli BL21(DE3) using MEcPP as substrate preincubated for 10 mins followed by substrate addition by Michaelis-Menten equation analysis
[15] = Inhibition of Escherichia coli IspE

Chain of 2-C-methyl-D-erythritol 2,4-cyclodiphosphate synthase (P9WKG5 whole entry): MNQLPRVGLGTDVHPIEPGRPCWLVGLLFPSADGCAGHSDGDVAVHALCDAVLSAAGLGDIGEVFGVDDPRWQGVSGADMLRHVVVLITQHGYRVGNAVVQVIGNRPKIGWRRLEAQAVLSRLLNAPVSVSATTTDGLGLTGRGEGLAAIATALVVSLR

## Oc1c(Cc2ccccc2)c(Cl)nc2ncnn12
[1]
  IC50: 0.14 µM

## O=P(O)(O)OP(=O)(O)OCCc1cccnc1 [PYRIDIN-3-YL-ETHYL-DIPHOSPHATE]
[2]
  IC50: 9.1 µM

## CCOC(=O)C1=C(C)N=c2s/c(=C\c3cc(Br)c(O)c(Br)c3)c(=O)n2C1c1cccs1 (stereo unspecified)
[3]
  IC50: 6.1 µM
[4]
  IC50: 9.6 µM

## C#CCCOP(=O)(O)OP(=O)(O)O [BUT-3-YNYL DIPHOSPHATE]
[5]
  IC50: 0.45 µM

## Nc1ccn([C@@H]2O[C@H](CNC(=O)CCc3nc4ccccc4[nH]3)[C@@H](O)[C@H]2O)c(=O)n1
[6]
  IC50: 1670 µM

## CC1(C)C(=O)ON(Cc2ccccc2Cl)C1=O [KETOCLOMAZONE]
[7]
  IC50: 100 µM

## O=C(O)C(=O)CF
[8]
  IC50: 400 µM
[9]
  IC50: 80 µM

## Nc1ccn(Cc2ccc(CNC(=O)c3ccccc3)c3ccccc23)c(=O)n1
[10]
  IC50: 450 µM

## O=CN(O)CCCP(=O)(O)O [FOSMIDOMYCIN]
[11]
  IC50: 0.035 µM

## CN(C)c1cccc2c(S(=O)(=O)NCCOP(=O)(O)OP(=O)(O)OC[C@H]3O[C@@H](n4ccc(N)nc4=O)[C@H](O)[C@@H]3O)cccc12
[12]
  IC50: 3000 µM

## CC(=O)N(O)CCCP(=O)(O)O
[11]
  IC50: 0.05 µM

## O=P(O)(O)OC[C@@H](O)[C@@H](O)CO
[13]
  IC50: 1360 µM

## C#CCOP(=O)(O)OP(=O)(O)O [PROP-2-YNYL DIPHOSPHATE]
[14]
  IC50: 0.75 µM

## CCS(=O)(=O)NCC#Cc1cn(C2CCCS2)c(=O)nc1N (stereo unspecified)
[15]
  IC50: 6 µM

Reference: ChEMBL document CHEMBL3217583, “The MEP pathway and the development of inhibitors as potential anti-infective agents” (Medchemcomm, 2012)
